According to patent publication US20230094922A1, “METHODS OF THERAPEUTIC PROGNOSTICATION” (GENETIKAPLUS LTD., priority 2020, published 2023):

Tested on: iPSC-derived cortical neurons
Format: cell-based
[1] = responders vs non-responders after 10 μM Bupropion, p<0.01
[2] = responders vs non-responders, 10 μM Bupropion, NS
[3] = responders vs non-responders, 10 μM Bupropion, p<0.01

CC(NC(C)(C)C)C(=O)c1cccc(Cl)c1 (stereo not drawn) [Bupropion, 3-Chloro-N-tert-butyl-β-keto-α-methylphenethylamin]
logFC PLCH2 [1]: −1.051
logFC PLD5 [1]: −1.909
logFC PLEKHD1 [1]: −3.283
logFC PLPP4 [1]: −0.9989
logFC PODN [1]: −1.12
logFC POLR2J3 [1]: −0.756
logFC POU4F1 [1]: −1.728
logFC PRCD [1]: −1.032
logFC PRPH [1]: −2.033
logFC PRSS33 [1]: −1.593
logFC PSD4 [1]: −0.7234
logFC PSMB8 [1]: −1.14
logFC PSMB9 [1]: −1.682
logFC PTGDS [1]: −1.612
logFC PTGER2 [1]: −2.59
logFC RAB42 [1]: −0.5093
logFC RBMS3 [1]: −0.8065
logFC RBP1 [1]: −0.6676
logFC RPH3A [1]: −2.057
logFC RSAD2 [1]: −1.646
logFC S100B [1]: −1.744
logFC SAMD9 [1]: −1.373
logFC SAMD9L [1]: −1.954
logFC SH3TC2 [1]: −1.437
logFC SKOR2 [1]: −2.986
logFC SLC2A1 [1]: −0.6362
logFC SLC4A4 [1]: −1.35
logFC SLC38A3 [1]: −0.8613
logFC SMPD1 [1]: −0.5833
logFC SST [1]: −1.012
logFC SUN2 [1]: −0.4523
logFC SUSD1 [1]: −0.629
logFC SYNC [1]: −1.688
logFC TAF1C [1]: −0.387
logFC TAP1 [1]: −0.8369
logFC TAP2 [1]: −0.8068
logFC TBC1D2 [1]: −0.6958
logFC TF [1]: −1.257
logFC THBS2 [1]: −1.7
logFC TLR6 [1]: −1.138
logFC TLX1 [1]: −2.764
logFC TLX3 [1]: −1.593
logFC TMC3 [1]: −2.021
logFC TMEM175 [1]: −0.5016
logFC TMEM176A [1]: −1.203
logFC TMEM176B [1]: −1.184
logFC TNFRSF14 [1]: −1.091
logFC TRAF1 [1]: −0.9274
logFC TREM1 [1]: −2.481
logFC TRIM8 [1]: −0.2802
logFC TRMT9B [1]: −0.6888
logFC TRPV2 [1]: −1.594
logFC TSHZ3 [1]: −1.109
logFC USH1C [1]: −1.858
logFC USP18 [1]: −0.9659
logFC VLDLR [1]: −0.4024
logFC VSTM2B [1]: −1.079
logFC ZFPM1 [1]: −0.5127
logFC ZNF575 [1]: −0.87
logFC ADAMTS9 expression [2]: 0.9659
logFC ADGRE5 expression [2]: 0.9432
logFC AMMECR1 expression [2]: 0.7173
logFC ANKRD1 expression [2]: 2.712
logFC ANKRD18A expression [2]: 1.155
logFC ANKRD33B expression [2]: 0.8016
logFC ANLN expression [2]: 0.911
logFC AP3B1 expression [2]: 0.7614
logFC ARHGAP10 expression [2]: 1.24
logFC ARHGAP11A expression [2]: 0.7121
logFC ARHGAP19 expression [2]: 0.5865
logFC ARL11 expression [2]: 0.8189
logFC BAX expression [2]: 0.4774
logFC BUB1 expression [2]: 0.6384
logFC C18orf54 expression [2]: 0.7328
logFC CD53 expression [2]: 1.712
logFC CDCA7 expression [2]: 0.949
logFC CDK1 expression [2]: 0.9851
logFC CDV3 expression [2]: 0.7482
logFC CENPA expression [2]: 1.025
logFC CENPH expression [2]: 0.8278
logFC CENPW expression [2]: 0.7956
logFC CHEK2 expression [2]: 0.7669
logFC CHMP4C expression [2]: 0.6773
logFC CHTF18 expression [2]: 0.4356
logFC CKS1B expression [2]: 0.5869
logFC CKS2 expression [2]: 0.7778
logFC CNN1 expression [2]: 0.8796
logFC COL17A1 expression [2]: 1.832
logFC CPVL expression [2]: 0.8555
logFC CRYZ expression [2]: 1.044
logFC CSF3R expression [2]: 2.81
logFC DAG1 expression [2]: 0.5339
logFC DCP2 expression [2]: 0.7702
logFC DEPDC1 expression [2]: 1.005
logFC DHRS2 expression [2]: 3.271
logFC DIAPH3 expression [2]: 0.9363
logFC DLGAP5 expression [2]: 0.8304
logFC DLX4 expression [2]: 1.485
logFC DLX5 expression [2]: 2.138
logFC DNMBP expression [2]: 0.5323
logFC DSG2 expression [2]: 0.746
logFC DSG3 expression [2]: 2.297
logFC DSP expression [2]: 1.327
logFC DUSP6 expression [2]: 0.9289
logFC EDA2R expression [2]: 0.569
logFC EFHD1 expression [2]: 0.872
logFC EGLN3 expression [2]: 1.216
logFC ELK3 expression [2]: 0.9378
logFC EME1 expression [2]: 0.7814
logFC EPHA7 expression [2]: 1.592
logFC ERLIN1 expression [2]: 0.5945
logFC ESAM expression [2]: 1.688
logFC EXOC3L2 expression [2]: 1.012
logFC FAM72A expression [2]: 1.123
logFC FAM72B expression [2]: 0.9318
logFC FAS expression [2]: 1.079
logFC FBXO5 expression [2]: 0.7533
logFC FGF23 expression [2]: 1.468
logFC FNDC1 expression [2]: 0.9667
logFC FOSL1 expression [2]: 1.137
logFC FOXL1 expression [2]: 1.191
logFC FUT10 expression [2]: 0.6404
logFC GNPNAT1 expression [2]: 1.06
logFC GTF2H3 expression [2]: 0.8228
logFC HACD2 expression [2]: 0.8389
logFC HAT1 expression [2]: 0.7547
logFC HDAC1 expression [2]: 0.4991
logFC HHIPL2 expression [2]: 1.368
logFC HIBADH expression [2]: 0.5725
logFC HMGB2 expression [2]: 0.5953
logFC HMMR expression [2]: 0.9939
logFC HNMT expression [2]: 1.877
logFC IMPACT expression [2]: 0.7315
logFC INPP5D expression [2]: 1.208
logFC IQGAP3 expression [2]: 0.6692
logFC ITGA2 expression [2]: 0.6822
logFC KIAA1217 expression [2]: 0.8875
logFC KIF2C expression [2]: 0.6989
logFC KIF11 expression [2]: 0.7863
logFC KIF14 expression [2]: 0.7995
logFC KIF20B expression [2]: 0.8251
logFC KIF23 expression [2]: 0.7114
logFC KRT8 expression [2]: 1.26
logFC KRT18 expression [2]: 1.596
logFC L2HGDH expression [2]: 0.7542
logFC LAMC1 expression [2]: 0.8644
logFC LPP expression [2]: 0.7521
logFC LRP4 expression [2]: 1.051
logFC LRRC15 expression [2]: 0.6532
logFC LTA4H expression [2]: 0.6494
logFC MAD2L1 expression [2]: 0.8373
logFC MAN2A1 expression [2]: 0.8316
logFC MATN3 expression [2]: 0.9618
logFC MDM2 expression [2]: 0.6788
logFC MELK expression [2]: 0.849
logFC MGST1 expression [2]: 0.9354
logFC MICB expression [2]: 0.9474
logFC MSX2 expression [2]: 1.687
logFC MT1E expression [2]: 0.1751
logFC MTBP expression [2]: 0.7803
logFC MUC4 expression [2]: 0.8705
logFC NDC1 expression [2]: 0.8188
logFC NDC80 expression [2]: 0.8291
logFC NEMP1 expression [2]: 0.791
logFC NGF expression [2]: 0.7928
logFC NLRP1 expression [2]: 1.235
logFC NOSTRIN expression [2]: 1.169
logFC NPPB expression [2]: 1.671
logFC NUF2 expression [2]: 0.7214
logFC NUP37 expression [2]: 0.7592
logFC NUPR1 expression [2]: 1.745
logFC ORC6 expression [2]: 0.8019
logFC PADI1 expression [2]: 0.9659
logFC PGM2 expression [2]: 0.8787
logFC PLAU expression [2]: 2.302
logFC PMP22 expression [2]: 1.525
logFC POLQ expression [2]: 0.7494
logFC PPP1R13L expression [2]: 0.8159
logFC PRDX6 expression [2]: 0.5898
logFC PROCR expression [2]: 1.393
logFC PRR11 expression [2]: 0.6089
logFC PTGR1 expression [2]: 0.6824
logFC PYGL expression [2]: 0.8577
logFC RAD51AP1 expression [2]: 1.085
logFC RBMS1 expression [2]: 0.7861
logFC RPL22L1 expression [2]: 1.141
logFC RPS27L expression [2]: 0.7459
logFC RREB1 expression [2]: 0.5116
logFC RRM2B expression [2]: 0.7867
logFC RUNX2 expression [2]: 0.8924
logFC S1PR5 expression [2]: 1.906
logFC SELENOV expression [2]: 0.8135
logFC SEM1 expression [2]: 0.5019
logFC SEPSECS expression [2]: 0.7254
logFC SEPTIN10 expression [2]: 0.7236
logFC SERPINE1 expression [2]: 2.019
logFC SESN1 expression [2]: 0.7238
logFC SFT2D1 expression [2]: 0.6487
logFC SLC22A31 expression [2]: 0.9625
logFC SLC47A1 expression [2]: 2.056
logFC SPDL1 expression [2]: 0.7492
logFC SPOCD1 expression [2]: 1.33
logFC SPP1 expression [2]: 1.215
logFC STIL expression [2]: 0.759
logFC STX3 expression [2]: 0.5017
logFC SWAP70 expression [2]: 0.8869
logFC TAF4B expression [2]: 0.9582
logFC TFPI2 expression [2]: 1.367
logFC TGIF1 expression [2]: 0.8371
logFC TM7SF3 expression [2]: 0.5627
logFC TMTC1 expression [2]: 1.156
logFC TNFRSF10D expression [2]: 0.8463
logFC TNFRSF12A expression [2]: 0.7449
logFC TOP2A expression [2]: 0.7201
logFC TPM1 expression [2]: 0.7857
logFC TRAM2 expression [2]: 0.5417
logFC TRIAP1 expression [2]: 0.7343
logFC TTK expression [2]: 0.82
logFC UBE2C expression [2]: 0.5692
logFC USP28 expression [2]: 0.4989
logFC USP53 expression [2]: 0.8262
logFC VRK1 expression [2]: 0.7229
logFC VWDE expression [2]: 1.176
logFC WEE1 expression [2]: 1.13
logFC WNT9B expression [2]: 0.5972
logFC WWC2 expression [2]: 0.7083
logFC XPO1 expression [2]: 0.7396
logFC YBX3 expression [2]: 0.5165
logFC ZGRF1 expression [2]: 0.9121
logFC ZIC2 expression [2]: 0.7767
logFC ADAL expression [3]: 0.3007
logFC ANKRD27 expression [3]: 0.3035
logFC ARHGEF26 expression [3]: 0.4633
logFC ATAD5 expression [3]: 0.5442
logFC BAG4 expression [3]: 0.4071
logFC CCDC150 expression [3]: 0.6042
logFC CDH6 expression [3]: 0.9224
logFC CHML expression [3]: 0.4888
logFC DHFR expression [3]: 0.5987
logFC DLX2 expression [3]: 0.9412
logFC DMRTA1 expression [3]: 0.858
logFC DNA2 expression [3]: 0.5431
logFC EIF1AX expression [3]: 0.5493
logFC F8 expression [3]: 0.4608
logFC FBXO22 expression [3]: 0.2957
logFC FREM2 expression [3]: 0.865
logFC GPC3 expression [3]: 1.257
logFC HAUS6 expression [3]: 0.5025
logFC HLA-DMA expression [3]: 0.9185
logFC ITGA6 expression [3]: 0.5208
